We go through eleven compounds from patent EP0314828A1, “4-Phenyl-1,2,3,4-tetrahydroisoquinolins as ulcer agents” (S O "PHARMACHIM", priority 1987, dated 1989).

Like-named read-outs stand apart in the source and are kept apart here.

The test system of data set [1] is Wasser-Immersions-Streßgeschwüren. The data set can be described thus: water-immersion stress ulcer model in rats, oral administration. The settings on record: for Prozent der Unterdrückung des Ulkusindexes / Ulkusindex / Prozentsatz der Unterdrückung des Ulkusindexes: rats. Further details: Ulkusindex: scale not given here. Type of data set: in vivo, Ratten. An excerpt:
Die Versuche werden mit 280 weißen männlichen Ratten - Wistar-Rasse - mit einem Gewicht von 150 bis 200 g nach der Takagi K., Ishii Y, Arzneim. Forsch. Drug.Res. 17, 1544 (1967) Methode durchgeführt und entsprechend modifiziert. Achtzehn Stunden vor dem Versuch werden die Tiere nicht gefüttert bei freiem Zugang zu Wasserquellen. Die Verbindungen der allgemeinen Formel I werden oral verabreicht; anschließend werden die Ratten, zur Verhinderung jeglicher Bewegung, auf dem Rücken an einer Unterlage angebunden, untereinander isoliert und in bis auf 17 - 18° C temperiertes Wasser getaucht. Fünf Stunden später wurden die Tiere getötet, ihre Mägen herausgenommen und makroskopische destruktive Änderungen festgestellt.
Die Prüfmethode ist dieselbe wie in Beispiel 1.

A further data set has as its system Streßgeschwüren. The settings on record: experimental models of stress ulcers in mice; M. Bickel, Arzn.Forsch. 30 (1), 69, 1980; cited from earlier work.
The next data set has as its system sauere Magensekret. The settings on record: in contrast to Histamin-H₂-Antagonisten; M. Bickel, Arzn.Forsch. 30 (1), 69, 1980; cited from earlier work.
The next data set deals with Geschwüren nach Shei. The data set can be described thus: ulcer model according to Shei (ligature) in rats. Type of data set: in vivo, Ratten. The settings on record: Table 7, Kontrolle 16. An excerpt: Die Versuche wurden mit weißen, männlichen Ratten, Rasse Wistar, mit einem Gewicht von 180 bis 270 g durchgeführt. Die Tiere werden 48 Stunden nicht gefüttert bei freiem Zugang zu Wasserquellen. 5 Stunden nach der Ligatur werden die Tiere getötet, die Mägen werden herausgenommen und die destruktiven Veränderungen makroskopisch untersucht. Als Vergleichspräparate wurden Cimetidin und Ranitidin angewandt (Tabelle 7). TABELLE 7

Data set [2] deals with durch Indometacin hervorgerufenen Geschwüren. The data set can be described thus: indometacin-induced ulcer model in rats. Type of data set: in vivo, Ratten. As to the method:
Die Versuche werden mit 50 weißen, männlichen Ratten der Rasse Wistar mit einem Gewicht von 170 bis 200 g durchgeführt. Achtzehn Stunden vor dem Versuch werden die Tiere nicht gefüttert bei freiem Zugang zu Wasserquellen. Das Indometacin wird in einer Dosis von 35 mg/kg intraperitoneal eine halbe Stunde nach der peroralen Verabreichung der Verbindung Ia, eingeführt. In der fünften Stunde werden die Tiere getötet, die Mägen werden herausgenommen und es werden makroskopisch die destruktiven Veränderungen bestimmt. TABELLE 5

The nature of the next data set: acute toxicity in mice. The note with it: mouse, in vivo, Mäusen, read-out: LD₅₀.
Data set [3] concerns durch Reserpin hervorgerufenen Geschwüren. The data set can be described thus: reserpine-induced ulcer model in rats. The settings on record: for Prozentsatz der Unterdrückung des Ulkusindexes / Ulkusindex: Table 6, rats; for Ulkusindex: Kontrolle 44,58. Further details: Ulkusindex: scale not given here. The class given is in vivo, Ratten. As to the method:
Die Versuche werden mit 180 weißen, männlichen Ratten - Rasse Wistar - mit einem Gewicht von 180 bis 270 g durchgeführt. Die Tiere werden 48 Stunden nicht gefüttert bei freiem Zugang zu Wasserquellen. Die Geschwüre wurden hervorgerufen durch die Injektion von 5 mg/kg Reserpin. Eine halbe Stunde vor Einführung des Reserpins erhalten die Tiere peroral verschiedene Dosen von Ia, die Kontrolltiere Wasser, 24 Stunden nach Einführung des Reserpins werden die Tiere mit Thiopental getötet. Die destruktiven Magenveränderungen werden makroskopisch bestimmt. Es wurden Vergleichsuntersuchungen mit Cimetidin und Ranitidin (Tabelle 6) durchgeführt.

The mark [4] stands for this setting: Table 1, peroral, Dosis 1 mg/kg, 5 h immersion.
Setting [5] is: Table 1, peroral, Dosis 1 mg/kg, 5 h immersion, Kontrolle 55,1.

As for `CN1Cc2c(Cl)cccc2C(c2ccccc2)C1` (stereo not drawn) [Ih, 2-Methyl-4-phenyl-8-chlor-1,2,3,4-tetrahydroisochinolin], in data set [1] (setting [4]), the “Prozent der Unterdrückung des Ulkusindexes” value was 36,60 Prozent. The Ulkusindex in data set [1] (setting [5]) is recorded as 34,90.

In the case of `CCOC(=O)Nc1cccc2c1CN(C)CC2c1ccccc1` (racemic) [Ie, 2-Methyl-4-phenyl-8-ethoxycarbonylamino-1,2,3,4-tetrahydroisochinolin], the “Prozent der Unterdrückung des Ulkusindexes” value in data set [1] (setting [4]) is 40,60 Prozent. In addition, the Ulkusindex in data set [1] (setting [5]) was 32,70.

For `CCOC(=O)Nc1cccc2c1CN(C)CC2c1ccc(Cl)cc1.O=C(O)/C=C\C(=O)O` (stereo not drawn) [Ic, /-/-2-Methyl-4-/4-chlorphenyl/8-ethoxycarbonylamino-1,2,3,4-tetrahydroisochinolin-saures Maleat], the “Prozent der Unterdrückung des Ulkusindexes” value in data set [1] (setting [4]) is 28,20 Prozent. For the same compound, in data set [1] (setting [5]), the Ulkusindex is recorded as 39,58.

With `CN1Cc2c(N)cccc2C(c2ccc(Cl)cc2)C1` (stereo not drawn) [Id, 2-Methyl-4-/4-chlorphenyl/-8-amino-1,2,3,4-tetrahydroisochinolin], the “Prozent der Unterdrückung des Ulkusindexes” value in data set [1] (setting [4]) was 86,40 Prozent. In addition, the Ulkusindex in data set [1] (setting [5]) is 7,50.

As for `CN1Cc2c(N)cccc2C(c2ccccc2)C1.O=C(O)/C=C\C(=O)O` (stereo not drawn) [Alival, 2-Methyl-4-phenyl-8-amino-1,2,3,4-tetrahydroisochinolin-saueres-Maleat], in the data set with Streßgeschwüren, the Antigeschwüreffekt entry is “einen Antigeschwüreffekt aufweist”. Further, in the data set with sauere Magensekret, the “Inhibierung des saueren Magensekrets” value is listed as “nicht inhibiert”.

As to `CCOC(=O)Nc1cccc2c1CN(C)CC2c1ccc(Cl)cc1` (racemic) [Ia, 2-Methyl-4-/4-Chlorphenyl/-8-Ethoxykarbonylamino-1,2,3,4-tetrahydroisochinolin], the Ulkusindex with Geschwüren nach Shei (rats, 0,100 mg/kg, 5 h after ligature) was 22; with Geschwüren nach Shei (rats, 0,500 mg/kg), 13; in the data set on Geschwüren nach Shei (rats, 1,5 mg/kg), 7,13; in the data set with Geschwüren nach Shei (rats, 1,000 mg/kg) it was 8,25; in data set [2] (Table 5, peroral, 0,050 mg/kg, Indometacin 35 mg/kg i.p., Kontrolle 19,5) it was 12,2; in data set [2] (Table 5, peroral, 0,250 mg/kg, Kontrolle 19,5) it was 10,4. For the same compound, the Ulkusindex in data set [2] (Table 5, peroral, 0,500 mg/kg, Kontrolle 19,5) is reported as 9,3; in data set [2] (Table 5, peroral, 1,100 mg/kg, Kontrolle 19,5), 4,2; in data set [2] (peroral, minimal dose printed as 0,1 mg/kg, Kontrolltiere 19,5) it was 12,2; in data set [1] (setting [5]), 4,33; in data set [1] (Table 3, oral, 0,100 mg/kg, Kontrolle 76.6), 41,3; in data set [1] (Table 3, oral, 0,250 mg/kg, Kontrolle 76.6), 32,7. Moreover, the Ulkusindex in data set [1] (Table 3, oral, 0,500 mg/kg, Kontrolle 76.6) is listed as 18,8; in data set [1] (Table 3, oral, 1,000 mg/kg, Kontrolle 76.6), 11,3; in data set [3] (peroral, 1 mg/kg), 23,5; in data set [3] (peroral, 2 mg/kg) it was 19,00; in data set [3] (peroral, 3 mg/kg), 26,00; in data set [3] (peroral, 0,250 mg/kg, Reserpin 5 mg/kg), 41,5. Further, the Ulkusindex in data set [3] (peroral, 0,500 mg/kg) is reported as 37; in data set [3] (peroral, 1,5 mg/kg) it was 21,33. Also, the “Prozentsatz der Unterdrückung des Ulkusindexes” value is recorded as 37 Prozent in data set [2] (Table 5, peroral, 0,050 mg/kg); 40,6 Prozent in data set [2] (Table 5, peroral, 0,250 mg/kg); 52 Prozent in data set [2] (Table 5, peroral, 0,500 mg/kg); 78 Prozent in data set [2] (Table 5, peroral, 1,100 mg/kg); 47,2 Prozent in data set [3] (peroral, 1 mg/kg); 57,37 Prozent in data set [3] (peroral, 2 mg/kg). Besides, the “Prozentsatz der Unterdrückung des Ulkusindexes” value is given as 41,00 Prozent in data set [3] (peroral, 3 mg/kg); 6,9 Prozent in data set [3] (peroral, 0,250 mg/kg); 17 Prozent in data set [3] (peroral, 0,500 mg/kg); 52,15 Prozent in data set [3] (peroral, 1,5 mg/kg). For the same compound, the Unterdrückungsprozentsatz in data set [2] (peroral, minimal dose printed as 0,1 mg/kg) is 37. Also, the LD50 in the data set “acute toxicity in mice” (ip, intraperitoneal) came to 125 mg/kg; in “acute toxicity in mice” (oral), 250 mg/kg. Moreover, the “Prozent der Unterdrückung des Ulkusindexes” value was 92,1 Prozent in data set [1] (setting [4]); 46 Prozent in data set [1] (Table 3, oral, 0,100 mg/kg); 57,3 Prozent in data set [1] (Table 3, oral, 0,250 mg/kg); 75,5 Prozent in data set [1] (Table 3, oral, 0,500 mg/kg); 85,00 Prozent in data set [1] (Table 3, oral, 1,000 mg/kg). The “höhere Ulkusaktivität im Vergleich zu Ranitidin” value in data set [1] (ratio of doses for maximal suppression: Ia 1 mg/kg vs Ranitidin 30 mg/kg (Tables 3 and 4)) was 30 fach. Moreover, in data set [3] (maximal effect of Ia at 1,5 and 2 mg/kg vs Cimetidin 100 mg/kg and Ranitidin 30 mg/kg), the “Ulkuseffekt gegenüber Vergleichspräparaten Cimetidin und Ranitidin” value is “mehrfach höher”.

With `CNC(=C[N+](=O)[O-])NCCSCc1ccc(CN(C)C)o1` [Ranitidin, N-/5-Dimethylamino-methyl/-2-furanil-methyl-thioethyl-/N-methyl-2-nitro/-1,1-ethan-diamin, reference compound], the Ulkusindex in the data set on Geschwüren nach Shei (rats, 30 mg/kg) is given as 9; in data set [1] (Table 4, peroral, 0,5 mg/kg, Kontrolle 44,3), 32,3; in data set [1] (Table 4, peroral, 1 mg/kg, Kontrolle 44,3), 26,9; in data set [1] (Table 4, peroral, 3 mg/kg, Kontrolle 44,3), 28,4; in data set [1] (Table 4, peroral, 10 mg/kg, Kontrolle 44,3), 22,6; in data set [1] (Table 4, peroral, 30 mg/kg, Kontrolle 44,3), 17,0. Moreover, in data set [3] (30 mg/kg), the Ulkusindex is given as 23,00. Moreover, the “Prozentsatz der Unterdrückung des Ulkusindexes” value is recorded as about 27 Prozent in data set [1] (Table 4, peroral, 0,5 mg/kg); 39,27 Prozent in data set [1] (Table 4, peroral, 1 mg/kg); 35,89 Prozent in data set [1] (Table 4, peroral, 3 mg/kg); 48,98 Prozent in data set [1] (Table 4, peroral, 10 mg/kg); 61,62 Prozent in data set [1] (Table 4, peroral, 30 mg/kg); 48,40 Prozent in data set [3] (30 mg/kg).

With `CCOC(=O)Nc1cccc2c1CN(C)CC2c1ccccc1` (racemic) [If, /+/-2-Methyl-4-phenyl-8-ethoxycarbonylamino-1,2,3,4-tetrahydroisochinolin], the “Prozent der Unterdrückung des Ulkusindexes” value in data set [1] (setting [4]) is given as 36,30 Prozent. For the same compound, the Ulkusindex in data set [1] (setting [5]) was 35,10.

For the compound `CNC(=NCCSCc1nc[nH]c1C)NC#N` [Cimetidin, N-Cyan-N-methyl-N-2/ 4-methyl-imidazolin/methylthio-ethylguanidinium, reference compound], the Ulkusindex is listed as 12,2 in the data set with Geschwüren nach Shei (rats, 100 mg/kg) and 27,62 in data set [3] (100 mg/kg). Also, the “Prozentsatz der Unterdrückung des Ulkusindexes” value in data set [3] (100 mg/kg) is listed as 38,00 Prozent.

With `CCOC(=O)Nc1cccc2c1CN(C)CC2c1ccccc1.O=C(O)/C=C\C(=O)O` (stereo not drawn) [Ig, /-/-2-Methyl-4-phenyl-8-ethoxycarbonylamino-1,2,3,4-tetrahydroisochinolin-saures Maleat], the “Prozent der Unterdrückung des Ulkusindexes” value in data set [1] (setting [4]) was 48,00 Prozent. Moreover, the Ulkusindex in data set [1] (setting [5]) is 28,60.

Take `CCOC(=O)Nc1cccc2c1CN(C)CC2c1ccc(Cl)cc1.O=C(O)/C=C\C(=O)O` (racemic) [Ib, /+/-2-Methyl-4-/4-chlorphenyl/8-ethoxycarbonylamino-1,2,3,4-tetrahydroisochinolin-saures Maleat]: the Ulkusindex in data set [1] (setting [5]) is 7,00. In addition, in data set [1] (Table 1 data, 1 mg/kg peroral), the “Aktivität im Vergleich mit /+/(Ib)” value is “vierfach niedrigere Aktivität”.
